This note sets out measurements from patent publication US8853258B2, “C-linked hydroxamic acid derivatives useful as antibacterial agents” (Pfizer Inc., priority 2009, dated 2014).

In brackets after ≈: the same amount, converted by molar mass. Like-named read-outs stand apart in the source and are kept apart here.

As a reminder, the MIC is the least concentration at which growth counts as inhibited.

What all share (type): cell-based
The subject of data set [1] is Klebsiella pneumoniae: Ciprofloxacin-resistant isolate, ESBL, clinical isolate (KP-3700). The data set is described as follows: MIC determination (CLSI), KP-3700. On the procedure: (§1) The in vitro antibacterial activity of compounds described in the Examples was evaluated by minimum inhibitory concentration (MIC) testing according to Clinical and Laboratory Standards Institute (CLSI, formerly NCCLS) guidelines. See: Clinical and Laboratory Standards Institute. Methods for Dilution Antimicrobial Susceptibility Tests for Bacteria that Grow Aerobically; Approved Standard-Seventh Edition. CLSI document M7-A7 [ISBN 1-56238-587-9]. Clinical and Laboratory Standards Institute, 940 West Valley Road, Suite 1400, Wayne, Pa. 19087-1898 USA, 2006; also Clinical and Laboratory Standards Institute. Performance Standards for Antimicrobial Susceptibility Testing; Eighteenth Informational Supplement. CLSI document M100-S18 [ISBN1-56238-653-0]. Clinical and Laboratory Standards Institute.
(§2) The following bacterial strains were used in these MIC determinations:
4) Klebsiella pneumoniae: Ciprofloxacin-resistant isolate, expresses extended-spectrum beta-lactamases (ESBL), clinical isolate, labeled as KP-3700 in Tables 1, 2, and 3.

For data set [2], the system named is Acinetobacter baumanii/haemolyticus: Multidrug-resistant clinical isolate (AB-3167). The experiment in a line: MIC determination (CLSI), AB-3167. Particulars: for MIC: Acinetobacter baumannii; for AB-3167 MIC: Acinetobacter baumanii/haemolyticus multidrug-resistant clinical isolate AB-3167. On the procedure:
as §1, §2
2) Acinetobacter baumanii/haemolyticus: Multidrug-resistant clinical isolate labeled as AB-3167 in Tables 1, 2 and 3;

The subject of data set [3] is Escherichia coli EC-1: VOGEL, mouse virulent. The data set is described as follows: MIC determination (CLSI), EC-1. Particulars: for MIC: Escherichia coli; for EC-1 MIC: Escherichia coli EC-1 VOGEL, mouse virulent. On the procedure:
as §1, §2
3) Escherichia coli EC-1: VOGEL, mouse virulent labeled as EC-1 in Tables 1, 2 and 3;

Data set [4] deals with Pseudomonas aeruginosa UI-18: Wild-type (PA-7). The experiment in a line: MIC determination (CLSI), PA-7. Particulars: for MIC: Pseudomonas aeruginosa; for PA-7 MIC: Pseudomonas aeruginosa UI-18 wild-type PA-7. On the procedure: as §1, §2
1) Pseudomonas aeruginosa UI-18: Wild-type, labeled as PA-7 in Tables 1, 2 and 3;

Where [5] appears, read: Table 1, MIC, read-out: AB-3167 (MIC).
The mark [6] stands for this setting: Table 1, MIC, read-out: PA-7 (MIC).

For the molecule `CC(CCc1ccc(OCc2c(F)cccc2Cl)cc1)(C(=O)NO)S(C)(=O)=O` (stereo not shown) [Example 276, 4-{4-[(2-chloro-6-fluorobenzyl)oxy]phenyl}-N-hydroxy-2-methyl-2-(methylsulfonyl)butanamide], in data set [1], the “KP-3700 MIC” value came to 16 µg/mL. Also, the MIC worked out at 32 µg/mL (≈ 74.4 µM) in data set [2] (Table 3, read-out: AB-3167 MIC); 4 µg/mL (≈ 9.3 µM) in data set [3] (read-out: EC-1 MIC); 4 µg/mL (≈ 9.3 µM) in data set [4] (Table 3, read-out: PA-7 MIC).
Turning to `CC(CCc1ccc(-c2ccc(C#N)cn2)cc1)(C(=O)NO)S(C)(=O)=O` (stereo not shown) [Example 129], the “KP-3700 MIC” value in data set [1] was “≧64 mg/L”. Further, the “AB-3167 MIC” value in data set [2] is “≧64 mg/L”. Also, in data set [3], the “EC-1 MIC” value is 16 µg/mL. The “PA-7 MIC” value in data set [4] was 4 µg/mL.
Consider `Cc1cc(O)ccc1-c1ccc(CCC(C)(C(=O)NO)S(C)(=O)=O)cc1` (stereo not shown) [Example 140], for which the “KP-3700 MIC” value in data set [1] is listed as “≧64 mg/L”. Further, in data set [2], the “AB-3167 MIC” value was “≧64 mg/L”. Moreover, in data set [3], the “EC-1 MIC” value turned out to be 32 µg/mL. Besides, in data set [4], the “PA-7 MIC” value was found to be 4 µg/mL.
`Cc1ccc(-c2ccc(CCC(C)(C(=O)NO)S(C)(=O)=O)cc2)o1` (stereo not shown) [Example 99]: the “KP-3700 MIC” value in data set [1] was found to be 32 µg/mL. Besides, the “AB-3167 MIC” value in data set [2] is “≧64 mg/L”. Besides, the “EC-1 MIC” value in data set [3] worked out at 16 µg/mL. For the same molecule, the “PA-7 MIC” value in data set [4] was 8 µg/mL.
For `Cc1ccc(C)c(COc2ccc(CCC(C)(C(=O)NO)S(C)(=O)=O)cc2)c1` (stereo not shown) [Example 254, 4-{4-[(2,5-dimethylbenzyl)oxy]phenyl}-N-hydroxy-2-methyl-2-(methylsulfonyl)butanamide], in data set [1], the “KP-3700 MIC” value was “≧64 mg/L”. Also, the MIC in data set [2] (Table 3, read-out: AB-3167 MIC) amounted to 16 µg/mL (≈ 39.5 µM); in data set [3] (read-out: EC-1 MIC), 8 µg/mL (≈ 19.7 µM); in data set [4] (Table 3, read-out: PA-7 MIC), 16 µg/mL (≈ 39.5 µM).
As to `CN(C)c1ccc(-c2ccc(CCC(C)(C(=O)NO)S(C)(=O)=O)cc2)cn1` (stereo not shown) [Example 35], the “KP-3700 MIC” value in data set [1] is 16 µg/mL. In addition, in data set [2], the “AB-3167 MIC” value was “≧64 mg/L”. Further, the “EC-1 MIC” value in data set [3] is 4 µg/mL. The “PA-7 MIC” value in data set [4] was 32 µg/mL.
For the molecule `CC(CCc1ccc(OCc2ccc(F)cc2C(F)(F)F)cc1)(C(=O)NO)S(C)(=O)=O` (stereo not shown) [Example 249, 4-(4-{[4-fluoro-2-(trifluoromethyl)benzyl]oxy}phenyl)-N-hydroxy-2-methyl-2-(methylsulfonyl)butanamide], the “KP-3700 MIC” value in data set [1] was “≧64 mg/L”. Further, the minimal inhibitory concentration (MIC) came out at 16 µg/mL (≈ 34.5 µM) in data set [2] (Table 3, read-out: AB-3167 MIC); 16 µg/mL (≈ 34.5 µM) in data set [3] (read-out: EC-1 MIC); 16 µg/mL (≈ 34.5 µM) in data set [4] (Table 3, read-out: PA-7 MIC).
`CSc1ccc(-c2ccc(CCC(C)(C(=O)NO)S(C)(=O)=O)cn2)cc1` (stereo not shown) [Example 121]: the “KP-3700 MIC” value in data set [1] worked out at 4 µg/mL. Further, the “AB-3167 MIC” value in data set [2] is “≧64 mg/L”. Also, in data set [3], the “EC-1 MIC” value stood at 1 µg/mL. Further, the “PA-7 MIC” value in data set [4] is 4 µg/mL.
In the case of `CC(CCc1ccc(-c2cccc(CO)c2)cc1)(C(=O)NO)S(C)(=O)=O` (racemic) [Example 84], in data set [1], the “KP-3700 MIC” value is given as “≧64 mg/L”. Also, the “AB-3167 MIC” value in data set [2] is “≧64 mg/L”. Besides, the “EC-1 MIC” value in data set [3] is given as “≧64 mg/L”. For the same molecule, in data set [4], the “PA-7 MIC” value amounted to 16 µg/mL.
Turning to `CC(CCc1ccc(-c2ccc(F)cc2)cc1)(C(=O)NO)S(C)(=O)=O` (stereo not shown) [Example 27], the “KP-3700 MIC” value in data set [1] amounted to 4 µg/mL. In data set [2], the “AB-3167 MIC” value was 8 µg/mL. Further, the “EC-1 MIC” value in data set [3] was 2 µg/mL. Further, the “PA-7 MIC” value in data set [4] amounted to 1 µg/mL.
On the same counts, the results for `CC(CCc1ccc(-c2cc(F)cc(F)c2)cc1)(C(=O)NO)S(C)(=O)=O` (stereo not shown) [Example 97] are 4 µg/mL, 8 µg/mL, 2 µg/mL and 1 µg/mL.
The like results for `CC(CCc1ccc(-c2ccc(S(C)(=O)=O)cc2)cc1)(C(=O)NO)S(C)(=O)=O` (racemic) [Example 79] were, in that order, “≧64 mg/L”, “≧64 mg/L”, 32 µg/mL and 4 µg/mL.
For the molecule `CC(CCc1ccc(OCc2cccc(F)c2)cc1)(C(=O)NO)S(C)(=O)=O` (stereo not shown) [Example 268, 4-{4-[(3-fluorobenzyl)oxy]phenyl}-N-hydroxy-2-methyl-2-(methylsulfonyl)butanamide], the “KP-3700 MIC” value in data set [1] worked out at 8 µg/mL. Further, the MIC came out at 16 µg/mL (≈ 40.5 µM) in data set [2] (Table 3, read-out: AB-3167 MIC); 2 µg/mL (≈ 5.06 µM) in data set [3] (read-out: EC-1 MIC); 8 µg/mL (≈ 20.2 µM) in data set [4] (Table 3, read-out: PA-7 MIC).
For `COc1ccc(F)c(-c2noc(COc3ccc(CCC(C)(C(=O)NO)S(C)(=O)=O)cc3)n2)c1` (stereo not shown) [Example 259, 4-(4-{[3-(2-fluoro-5-methoxyphenyl)-1,2,4-oxadiazol-5-yl]methoxy}phenyl)-N-hydroxy-2-methyl-2-(methylsulfonyl)butanamide], in data set [1], the “KP-3700 MIC” value is reported as “≧64 mg/L”. Besides, the MIC in data set [2] (Table 3, read-out: AB-3167 MIC) is no less than 64 µg/mL; in data set [3] (read-out: EC-1 MIC), 16 µg/mL (≈ 32.4 µM); in data set [4] (Table 3, read-out: PA-7 MIC) it was no less than 64 µg/mL.
On to `CC(CCc1ccc(OCc2nc(C3CCCC3)no2)cc1)(C(=O)NO)S(C)(=O)=O` (stereo not shown) [Example 273, 4-{4-[(3-cyclopentyl-1,2,4-oxadiazol-5-yl)methoxy]phenyl}-N-hydroxy-2-methyl-2-(methylsulfonyl)butanamide], for which the “KP-3700 MIC” value in data set [1] was determined as 32 µg/mL. In addition, the MIC in data set [2] (Table 3, read-out: AB-3167 MIC) is no less than 64 µg/mL; in data set [3] (read-out: EC-1 MIC) it was 16 µg/mL (≈ 36.6 µM); in data set [4] (Table 3, read-out: PA-7 MIC) it was no less than 64 µg/mL.
For the molecule `CC(CCc1ccc(-c2ccc(OCCCN)cc2)cc1)(C(=O)NO)S(C)(=O)=O` (stereo not shown) [Example 117], the “KP-3700 MIC” value in data set [1] is on record as “≧64 mg/L”. For the same molecule, in data set [2], the “AB-3167 MIC” value is “≧64 mg/L”. The “EC-1 MIC” value in data set [3] was “≧64 mg/L”. For the same molecule, the “PA-7 MIC” value in data set [4] worked out at 8 µg/mL.
As for `COc1ccc(-c2ccc(CCC(C)(C(=O)NO)S(C)(=O)=O)cc2)cc1` (racemic) [Example 55], the “KP-3700 MIC” value in data set [1] turned out to be 2 µg/mL. In data set [2], the “AB-3167 MIC” value is 16 µg/mL. Besides, the “EC-1 MIC” value in data set [3] was 0.5 µg/mL. Moreover, the “PA-7 MIC” value in data set [4] amounted to 0.5 µg/mL.
Turning to `CC(CCc1ccc(-n2cc3ccccc3n2)cc1)(C(=O)NO)S(C)(=O)=O` (racemic) [Example 22, (+/−)-N-hydroxy-4-[4-(2H-indazol-2-yl)phenyl]-2-methyl-2-(methylsulfonyl)butanamide], the “KP-3700 MIC” value in data set [1] worked out at 8 µg/mL. In addition, the results for the MIC in data set [2] (setting [5]), in data set [3] (read-out: EC-1: (MIC)) and in data set [4] (setting [6]) were no less than 64 µg/mL, 4 µg/mL (≈ 10.3 µM) and 4 µg/mL (≈ 10.3 µM), respectively.
As to `Cc1ccc(COc2ccc(CCC(C)(C(=O)NO)S(C)(=O)=O)cc2)cc1` (stereo not shown) [Example 263, N-hydroxy-2-methyl-4-{4-[(4-methylbenzyl)oxy]phenyl}-2-(methylsulfonyl)butanamide], in data set [1], the “KP-3700 MIC” value came to 8 µg/mL. Further, the MIC stood at 16 µg/mL (≈ 40.9 µM) in data set [2] (Table 3, read-out: AB-3167 MIC); 2 µg/mL (≈ 5.11 µM) in data set [3] (read-out: EC-1 MIC); 4 µg/mL (≈ 10.2 µM) in data set [4] (Table 3, read-out: PA-7 MIC).
With `CC(CCc1ccc(-c2ccc(OCCN)cc2)cc1)(C(=O)NO)S(C)(=O)=O` (stereo not shown) [Example 116], the “KP-3700 MIC” value in data set [1] is “≧64 mg/L”. In addition, the “AB-3167 MIC” value in data set [2] is reported as “≧64 mg/L”. Moreover, the “EC-1 MIC” value in data set [3] is reported as “≧64 mg/L”. For the same molecule, the “PA-7 MIC” value in data set [4] is 4 µg/mL.
Regarding `CC(CCc1ccc(Oc2ccccc2)cc1)(C(=O)NO)S(C)(=O)=O` (stereo not shown) [Example 10, N-Hydroxy-2-methyl-2-(methylsulfonyl)-4-(4-phenoxyphenyl)butanamide], the “KP-3700 MIC” value in data set [1] was 32 µg/mL. The MIC in data set [2] (setting [5]) is 32 µg/mL (≈ 88 µM); in data set [3] (read-out: EC-1: (MIC)) it was 16 µg/mL (≈ 44 µM); in data set [4] (setting [6]) it was 8 µg/mL (≈ 22 µM).
Consider `CC(CCc1ccc(-c2ccc(OCCCCN)cc2)cc1)(C(=O)NO)S(C)(=O)=O` (stereo not shown) [Example 118], for which the “KP-3700 MIC” value in data set [1] was “≧64 mg/L”. Further, in data set [2], the “AB-3167 MIC” value is reported as “≧64 mg/L”. For the same molecule, the “EC-1 MIC” value in data set [3] was found to be 32 µg/mL. In addition, in data set [4], the “PA-7 MIC” value was 16 µg/mL.
